Source: patent US20030144346A1, “Methods and compositions for regulation of 5-alpha reductase activity” (priority 1997, published 2003)
Several values for one entry are separate records, joined by “and”; a condition that tells them apart may be missing. Equal values may be shown once.

Tests used:
[1] = biological target: T1, type 1 human 5α-reductase (HRED1) (Homo sapiens, UniProt P18405); assay: Whole cell assay of 5α-reductase, type 1 isoenzyme; type: cell-based; set-up: expressed in transfected cells; host or cells: rat 1A cells infected with pMV7 retrovirus; conditions: whole cell assay; for IC50: read-out: HCRED1 IC50;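 for all read-outs here: intact rat 1A cells engineered to express the human type 1 5α-reductase isozyme serve as the enzyme source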
T1 sequence (P18405 1-259): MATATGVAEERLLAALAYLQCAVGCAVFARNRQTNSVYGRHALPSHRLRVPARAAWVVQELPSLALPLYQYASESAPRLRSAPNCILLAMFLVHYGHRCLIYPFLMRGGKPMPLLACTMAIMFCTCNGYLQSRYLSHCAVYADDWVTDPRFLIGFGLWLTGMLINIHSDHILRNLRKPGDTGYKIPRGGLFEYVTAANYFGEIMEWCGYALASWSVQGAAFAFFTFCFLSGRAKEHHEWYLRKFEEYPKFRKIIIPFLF

[2] = Body and organ weight loss; type: in vivo; conditions: compared with ECG
Experimental: By way of example, male Sprague-Dawley rats (body weight 180 g±10 g) are used. Compounds are intraperitoneally injected into rats in one group each day for 7 days. Rats in the control group receive 0.1 ml 30% ethanol. Body and organ weights are determined.

[3] = biological target: T1, type 1 human 5α-reductase (HRED1); assay: Cell free assay of 5α-reductase, microsomes of rat 1A cells expressing type 1 isoenzyme (HRED1); type: biochemical; set-up: expressed in transfected cells; host or cells: rat 1A cells infected with pMV7 retrovirus; microsomes;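 note: microsomes from rat 1A cells expressing human type 1 5α-reductase, conversion of radiolabeled testosterone to dihydrotestosterone quantified by thin layer chromatography with radioanalytic scanning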
[4] = test system: human prostate and breast tumors; assay: Human prostate and breast tumors in animal models; type: in vivo, nude mice
Experimental: A compound of this invention can be used to treat breast or prostate cancer. […] By way of example, human prostate cancer PC-3 cells are grown in culture medium. About one million cells are injected into male nude mice and the growth of tumors followed. Within two weeks, the tumor grows to about 100 mm^3. Three tumor bearing mice are injected with a test compound each day.

[5] = biological target: T2, type 2 human 5α-reductase (HRED2) (Homo sapiens, UniProt P31213); assay: Whole cell assay of 5α-reductase, type 2 isoenzyme; type: cell-based; set-up: expressed in transfected cells; host or cells: rat 1A cells infected with pMV7 retrovirus; conditions: for inhibition at 100 µM: Table 7; for IC50: Table 7, read-out: HCRED2 IC50;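 for all read-outs here: intact rat 1A cells genetically modified to carry human type 2 5α-reductase served as the enzyme source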
T2 sequence (P31213 1-254): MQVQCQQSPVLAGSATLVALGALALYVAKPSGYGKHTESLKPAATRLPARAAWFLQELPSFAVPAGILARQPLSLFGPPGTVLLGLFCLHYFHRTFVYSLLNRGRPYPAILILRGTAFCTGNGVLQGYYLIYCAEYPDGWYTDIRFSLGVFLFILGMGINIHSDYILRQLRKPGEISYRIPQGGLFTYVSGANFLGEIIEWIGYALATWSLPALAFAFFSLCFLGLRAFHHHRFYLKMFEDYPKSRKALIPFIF

[6] = test system: 5α-reductases isozyme 2 and isozyme 1; conditions: Russell and Wilson, 1994; cited from earlier work
[7] = biological target: T2, type 2 human 5α-reductase (HRED2); assay: Cell free assay of 5α-reductase, microsomes of rat 1A cells expressing type 2 isoenzyme (HRED2); type: biochemical; set-up: expressed in transfected cells; host or cells: rat 1A cells infected with pMV7 retrovirus; microsomes; conditions: for IC50: read-out: HRED2 IC50;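 for all read-outs here: labeled testosterone and its product dihydrotestosterone measured in microsomal reaction extracts via thin layer chromatography plus radioanalytic scanning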
[8] = 100 uM, cell free assay, Table 2, read-out: HRED2 % Inhibition @ 100 uM
[9] = cell free assay, Table 2 catechols
[10] = 100 uM, cell free assay, Table 2, read-out: HRED1 % Inhibition @ 100 uM
[11] = cell free assay, Table 2 catechols, read-out: HRED1 IC50

In the case of `O=C(O[C@@H]1Cc2c(O)cc(O)cc2O[C@@H]1c1cc(O)c(O)c(O)c1)c1cc(O)c(O)c(O)c1` [Epigallocatechin Gallate], the “inhibitory activity in the whole cell assay, type 1 isoenzyme, in words” value [1] is reported as “low”, the “reduction of body weight” value [2] is reported as “significantly more effective” and the “inhibitory activity against type 1 isoenzyme, in words” value ([3]; cell-free assay) is reported as “high”. The “effect on size of human prostate and breast tumors” value [4] was “surprisingly effective in suppressing and even reducing the size” and the “HRED2 % Inhibition @ 100 μM” value ([5]; Table 7, listed as EGCG) was 5% and 0%.
In the case of `CC(C)(C)NC(=O)[C@H]1CC[C@H]2[C@@H]3CC[C@H]4NC(=O)C=C[C@]4(C)[C@H]3CC[C@]12C` [Finasteride], the “affinity for isozyme 2 relative to isozyme 1” value [6] is listed as 30 fold.
For `CCCOC(=O)c1cc(O)c(O)c(O)c1` [Propylgallate], the inhibition at 100 µM [7, 8] was 0%, the IC50 [7, 9] was over 100 µM and the inhibition at 100 µM ([1]; 100 μM, Table 7) was 5%. For the same compound, the IC50 ([1]; Table 7) was over 100 µM, the inhibition at 100 µM [3, 10] was 0% and the IC50 [3, 11] was over 100 µM. For the same compound, the inhibition at 100 µM [5] was 0% and the IC50 [5] was over 100 µM.
`O=C1c2ccccc2C(=O)c2c(O)c(O)cc(O)c21` [Purpurin] gave an IC50 ([7]; cell free assay, Table 4 quinones) of over 100 µM, an inhibition at 100 µM ([1]; 100 μM, Table 7) of 47% and an IC50 ([1]; Table 7) of over 100 µM. It also gave an IC50 ([3]; cell free assay, Table 4 quinones, read-out: HRED1 IC50) of 2 µM, an inhibition at 100 µM [5] of 7% and an IC50 [5] of over 100 µM.
In the case of `Oc1cccc(O)c1O` [Pyrogallol], the inhibition at 100 µM [7, 8] is reported as 28%, the IC50 [7, 9] is reported as over 100 µM and the “HRED1 % Inhibition @ 100 μM” value ([1]; 100 μM, Table 7) is reported as 5%. For the same compound, the inhibition at 100 µM ([1]; 100 μM, Table 7) was 7%, the IC50 ([1]; Table 7) was over 100 µM and the inhibition at 100 µM [3, 10] was 60%. The IC50 [3, 11] was 70 µM, the “HRED2 % Inhibition @ 100 μM” value ([5]; Table 7, 100 µM) was 6% and the IC50 [5] was over 100 µM.
With `O=c1c(O)c(-c2ccc(O)c(O)c2)oc2cc(O)cc(O)c12` [Quercitin] the inhibition at 100 µM ([7]; 100 uM, cell free assay, Table 1, read-out: HRED2 % Inhibition @ 100 uM) was 14%, the IC50 ([7]; cell free assay, Table 1 flavanoids) was over 100 µM and the inhibition at 100 µM ([1]; 100 μM, Table 7) was 15%. It also gave an IC50 ([1]; Table 7) of over 100 µM, an inhibition at 100 µM ([3]; 100 uM, cell free assay, Table 1, read-out: HRED1 % Inhibition @ 100 uM) of 96% and an IC50 ([3]; cell free assay, Table 1 flavanoids, read-out: HRED1 IC50) of 23 µM. The IC50 ([3]; cell-free assay, read-out: IC50, type 1 isoenzyme) was under 100 µM, the inhibition at 100 µM [5] was 29% and the IC50 [5] was over 100 µM.
Work on `CCCCCCCCCCCCCCCCCC(=O)O` [Stearic Acid, Stearic Acid C18:0] yielded an inhibition at 100 µM ([7]; 100 μM, cell free assay, Table 6, read-out: HRED2 % Inhibition @ 100 μM) of 35%, an IC50 ([7]; cell free assay, Table 6 fatty acids) of over 100 µM and an inhibition at 100 µM ([1]; 100 μM, Table 7) of 10%. It also gave an IC50 ([1]; Table 7) of over 100 µM, an inhibition at 100 µM ([3]; 100 μM, cell free assay, Table 6, read-out: HRED1 % Inhibition @ 100 μM) of 71% and an IC50 ([3]; cell free assay, Table 6 fatty acids, read-out: HRED1 IC50) of 27 µM. It also gave an inhibition at 100 µM [5] of 23% and an IC50 [5] of over 100 µM.
For `COc1cc(CCC(=O)CC(=O)CCc2ccc(O)c(OC)c2)ccc1O` [Tetrahydrocurcumin], the inhibition at 100 µM ([7]; read-out: HRED2 % Inhibition @ 100 uM) was 73%, the IC50 [7] was 29 µM and the inhibition at 100 µM ([1]; 100 μM, Table 7) was 81%. For the same compound, the IC50 ([1]; Table 7) was 36 µM, the IC50 ([3]; cell free assay, Table 3 curcumin and related compounds, read-out: HRED1 IC50) was 80 µM and the inhibition at 100 µM ([3]; read-out: HRED1 % Inhibition @ 100 uM) was 56%. It also gave an inhibition at 100 µM [5] of 92% and an IC50 [5] of 7 µM.
